Source: PubChem BioAssay AID192 (DTP/NCI, 2004)
Where “and” joins values, the source holds several entries; their conditions need not be identical. Identical values can stand only once. Inconclusive results and toxic doses are left out.

Test system: BDF1 mice, B16 melanoma ip, median survival T/C
Experiment: NCI In Vivo Anticancer Drug Screen. Data for tumor model B16 Melanoma (intraperitoneal) in B6D2F1 (BDF1) mice
Conditions: endpoint: median survival time, higher = longer survival
In short: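 Read-out: survival or tumor size, given as treated/control ratio. Controls received vehicle only; animals bore transplantable tumors.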

[1] = dose: 100.0 mg/kg/injection, schedule: Q01DX009 (ip), vehicle: Klucel (hydroxypropylcellulose) (HPC)
[2] = dose: 12.5 mg/kg/injection, schedule: Q01DX009 (ip), vehicle: saline
[3] = dose: 25.0 mg/kg/injection, schedule: Q01DX009 (ip), vehicle: saline
[4] = dose: 50.0 mg/kg/injection, schedule: Q01DX009 (ip), vehicle: saline with Tween-80
[5] = dose: 100.0 mg/kg/injection, schedule: Q01DX009 (ip), vehicle: saline with Tween-80
[6] = dose: 200.0 mg/kg/injection, schedule: Q01DX009 (ip), vehicle: saline with Tween-80

With `COc1cccc2c1C(=O)c1c(O)c3c(c(O)c1C2=O)C[C@@](O)(C(C)=O)C[C@@H]3OC1CC(N(C)C)C(O)C(C)O1` (stereo partly drawn) the T/C (dose: 0.63 mg/kg/injection, schedule: Q01DX001 (ip), vehicle: water) was 100 % of control, the T/C (dose: 1.25 mg/kg/injection, schedule: Q01DX001 (ip), vehicle: water) was 110 % of control and 112 % of control and the T/C (dose: 2.5 mg/kg/injection, schedule: Q01DX001 (ip), vehicle: water) was 104 % of control. For the same compound, the T/C (dose: 3.46 mg/kg/injection, schedule: Q04DX003 (ip), vehicle: water) was 98 % of control and 122 % of control, the T/C (dose: 5.76 mg/kg/injection, schedule: Q04DX003 (ip), vehicle: water) was 106 % of control and 117 % of control and the T/C (dose: 7.2 mg/kg/injection, schedule: Q01DX001 (ip), vehicle: water) was 104 % of control and 116 % of control. For the same compound, the T/C (dose: 9.6 mg/kg/injection, schedule: Q04DX003 (ip), vehicle: water) was 102 % of control and the T/C (dose: 12.0 mg/kg/injection, schedule: Q01DX001 (ip), vehicle: water) was 106 % of control and 121 % of control.
In the case of `CCCCC(=O)OCC(=O)[C@]1(O)Cc2c(O)c3c(c(O)c2[C@@H](OC2CC(NC(=O)C(F)(F)F)C(O)C(C)O2)C1)C(=O)c1c(OC)cccc1C3=O` (stereo partly drawn), the T/C (dose: 7.78 mg/kg/injection, schedule: Q01DX004 (ip), vehicle: other) is reported as 106 % of control, the T/C (dose: 9.38 mg/kg/injection, schedule: Q01DX001 (ip), vehicle: clinical formulation) is reported as 111 % of control and the T/C (dose: 13.0 mg/kg/injection, schedule: Q01DX004 (ip), vehicle: other) is reported as 115 % of control. The T/C (dose: 21.6 mg/kg/injection, schedule: Q01DX004 (ip), vehicle: other) was 122 % of control, the T/C (dose: 32.0 mg/kg/injection, schedule: Q01DX009 (ip), vehicle: distilled water + Tween-80) was 180 % of control and the T/C (dose: 36.0 mg/kg/injection, schedule: Q01DX004 (ip), vehicle: other) was 122 % of control. For the same compound, the T/C (dose: 64.0 mg/kg/injection, schedule: Q01DX009 (ip), vehicle: distilled water + Tween-80) was 158 % of control, the T/C (dose: 75.0 mg/kg/injection, schedule: Q01DX001 (ip), vehicle: clinical formulation) was 191 % of control and the T/C (dose: 128.0 mg/kg/injection, schedule: Q01DX009 (ip), vehicle: distilled water + Tween-80) was 288 % of control. For the same compound, the T/C (dose: 150.0 mg/kg/injection, schedule: Q01DX001 (ip), vehicle: clinical formulation) was 169 % of control and 205 % of control.
In the case of `Cc1ccc(NC(=O)Nc2ccccc2)cc1Cl`, the T/C (dose: 100.0 mg/kg/injection, schedule: Q01DX008 (sc), vehicle: olive oil, sesame oil, peanut oil) is reported as 99 % of control, the T/C (dose: 200.0 mg/kg/injection, schedule: Q01DX008 (sc), vehicle: olive oil, sesame oil, peanut oil) is reported as 96 % of control and the T/C (dose: 400.0 mg/kg/injection, schedule: Q01DX008 (sc), vehicle: olive oil, sesame oil, peanut oil) is reported as 98 % of control.
For `COc1cc2nc3cc([N+](=O)[O-])ccc3c(Cl)c2cc1OC`, the T/C (dose: 50.0 mg/kg/injection, schedule: Q01DX009 (ip), vehicle: Klucel (hydroxypropylcellulose) (HPC)) was 103 % of control and the T/C [1] was 96 % of control.
With `CC(N)C(=O)NC(CC(=O)O)C(=O)O` (stereo not drawn) the T/C [2] was 99 % of control, the T/C [3] was 93 % of control and the T/C (dose: 50.0 mg/kg/injection, schedule: Q01DX009 (ip), vehicle: saline) was 98 % of control. For the same compound, the T/C (dose: 100.0 mg/kg/injection, schedule: Q01DX009 (ip), vehicle: saline) was 93 % of control and the T/C (dose: 200.0 mg/kg/injection, schedule: Q01DX009 (ip), vehicle: saline) was 98 % of control.
For `COc1ccccc1N1CCN(CCc2c[nH]c3cc4c(cc23)OCO4)CC1`, the T/C (dose: 1.56 mg/kg/injection, schedule: Q01DX009 (ip), vehicle: Klucel (hydroxypropylcellulose) (HPC)) was 89 % of control and the T/C (dose: 6.25 mg/kg/injection, schedule: Q01DX009 (ip), vehicle: Klucel (hydroxypropylcellulose) (HPC)) was 89 % of control.
In the case of `COc1ccccc1NC(=O)Nc1ccc(C(=O)OCC(C)C)cc1`, the T/C [4] is reported as 100 % of control, the T/C [5] is reported as 94 % of control and the T/C [6] is reported as 95 % of control.
`CN(C)CC(C)(C)CN1c2ccccc2Sc2ccccc21` was tested, and the T/C (dose: 6.25 mg/kg/injection, schedule: Q01DX009 (ip), vehicle: saline) was 117 % of control, the T/C [2] was 105 % of control and the T/C [3] was 105 % of control.
For `CCc1ccc(NC(=O)Nc2cccc(Cl)c2)cc1`, the T/C [1] was 91 % of control, the T/C (dose: 200.0 mg/kg/injection, schedule: Q01DX009 (ip), vehicle: Klucel (hydroxypropylcellulose) (HPC)) was 102 % of control and the T/C (dose: 400.0 mg/kg/injection, schedule: Q01DX009 (ip), vehicle: Klucel (hydroxypropylcellulose) (HPC)) was 88 % of control.
`OCCNCc1ccc(Cl)cc1` was tested, and the T/C [4] was 104 % of control, the T/C [5] was 109 % of control and the T/C [6] was 103 % of control.
`CC(=Nc1ccccc1)C1=C(O)C(CC(C)C)NC1=O` (stereo not drawn) was tested, and the T/C [4] was 107 % of control, the T/C [5] was 103 % of control and the T/C [6] was 96 % of control. For the same compound, the T/C (dose: 400.0 mg/kg/injection, schedule: Q01DX009 (ip), vehicle: saline with Tween-80) was 88 % of control.
For `CCCCCCCCCCCCCC(=O)CC`, the T/C (dose: 9.4 mg/kg/injection, schedule: Q01DX009 (ip), vehicle: saline with Tween-80) was 95 % of control and the T/C (dose: 18.75 mg/kg/injection, schedule: Q01DX009 (ip), vehicle: saline with Tween-80) was 87 % of control.
